Consider one molecule from PMC11091888, “Evaluation of Fusobacterium nucleatum Enoyl-ACP Reductase (FabK) as a Narrow-Spectrum Drug Target” (ACS Infectious Diseases, 2024).

Converted amounts (≈) assume the structure as drawn.

Experiment [1] has as its system C. difficile infection (CDI). The settings on record: cited from earlier work.
A further experiment relates to E. faecalis FA2–2. Briefly: MIC against wild-type E. faecalis FA2-2 (FabI and FabK). In kind it is cell-based, Enterococcus faecalis. Conditions: Enterococcus faecalis, E. faecalis FA2-2, possesses both FabI and FabK; read-out: MIC Ef wild-type. The protocol:
(§1) Compounds were twofold serially diluted (100–0.2 μg/mL) across a 96-well plate in 100 μL of media used for the specific organism (Table S4). For anaerobes, plates were incubated anaerobically at 37 °C for 1 h and then inoculated with approximately 10^5 to 10^6 CFU/well. Plates were incubated at 37 °C for up to 48 h, and MICs were read by visual inspection.

A further experiment has as its system E. faecalis FA2–2ΔfabI. The experiment in a line: MIC against E. faecalis FA2-2 fabK+ (ΔfabI, possesses only FabK). In kind it is cell-based, Enterococcus faecalis. Conditions: Enterococcus faecalis, read-out: MIC Ef fabK+, E. faecalis FA2-2 ΔfabI, possesses only FabK. The procedure: as §1
In another experiment the test system is F. nucleatum 23726. Briefly: MIC against F. nucleatum 23726. Type of experiment: cell-based, Fusobacterium nucleatum. The settings on record: three biological replicates. The protocol: as §1

In general, MIC refers to the least concentration at which growth counts as inhibited. Consider `O=C(NCc1nc(-c2ccc(Br)cc2)c[nH]1)Nc1ncc(Sc2ccccn2)s1` [Compound 296, 1-[4-(4-bromophenyl)-1H-imidazole-2-yl]methyl-3-[5-(pyridin-2-ylthio)thiazol-2-yl]urea], for which the “Efficacy in treating C. difficile infection (CDI) in mice” value in experiment [1] is “efficacious”. Also, the MIC in the experiment with E. faecalis FA2–2 is 100 µg/mL (≈ 205 µM); in the experiment with E. faecalis FA2–2ΔfabI, below 0.1 µg/mL; in the experiment with F. nucleatum 23726 (Fusobacterium nucleatum, 23726, F. nucleatum 23726 wild-type, read-out: MIC Fn 23726), above 100 µg/mL. Besides, the “MIC Fn 23726” value against F. nucleatum 23726 (F. nucleatum 23726 wild-type) was 100 µg/mL (≈ 205 µM).
